Data on two compounds can be found in publication PMC8230474, “Synthesis of Novel Acyl Derivatives of 3-(4,5,6,7-Tetrabromo-1H-benzimidazol-1-yl)propan-1-ols—Intracellular TBBi-Based CK2 Inhibitors with Proapoptotic Properties” (International Journal of Molecular Sciences, 2021).

Like-named read-outs stand apart in the source and are kept apart here.

For orientation: EC50 means the concentration at which the effect is half-maximal.

One assay relates to MDA-MB-231 cells. The assay is described as follows: MTT viability assay, MDA-MB-231. It counts as cell-based. The settings on record: Homo sapiens, read-out: EC50 ± SD MDA-MB-231. On the procedure:
(§1) To test the anti-cancer effect of the TBBi derivatives, we treated the MCF-7 and MDA-MB-231 cells with the newly synthesized esters and previously reported compounds [34, 57] at the concentration range of 3.125 to 200 µM for 24 h, 48 h and 72 h. Additionally, the range of concentrations was extended by additional lower concentrations in MCF-7 for compound 4 with the minimum concentration of 0.195 µM. […] The EC50 values, describing the half maximal effective concentration of each tested compound, were calculated and are summarized in Table 2. […] We observed that the EC50 values increase in both cell lines with the elongation of fatty acids chain length in the tested compounds, thus strongly correlating with the decrease of their solubility in biological media as characterized by logS parameter (Table 2). The second reason for the decreased biological activity of the longer-chain aliphatic esters might be attributed to their greater resistance toward intracellular hydrolysis, which directly influences the slower release of the active form of the corresponding CK2 inhibitors. […] However, none of the tested compounds, except for compound 5, decreased the viability of both cell lines in a time-dependent manner (Figure 4).
(§2) MCF-7 and MDA-MB-231 were cultured in high-glucose Dulbecco’s modified Eagle medium (DMEM, Lonza, Basel, Switzerland) supplemented with 10% fetal bovine serum (FBS, EuroClone, Siziano, Italy)), 2 mM L-glutamine, and antibiotics (100 U/mL penicillin, 100 µg/mL streptomycin) (Sigma-Aldrich Chemical Company (St. Louis, MO, USA). Cells were grown in 75-cm^2 cell culture flasks (Sarstedt, Nümbrecht, Germany) in a humidified atmosphere of CO2/air (5%/95%) at 37 °C. All the experiments were performed in exponentially growing cultures. Stock solutions of the test compounds were prepared in DMSO and stored in −80 °C for a maximum of one month. For the cytotoxicity studies, stock solutions of the tested compounds were diluted 200-fold with the proper culture medium to obtain the final concentrations.
(§3) After incubation with the tested compounds, an MTT test was performed as described previously. Optical densities were measured at 570 nm using BioTek microplate reader (Winooski, VT, USA). All measurements were carried out in a minimum of three biological replicates.
In general terms: Tetrazolium assays rely on reduction of a dye to a coloured formazan, in cell work by metabolically active cells.

Assay [1] relates to MCF-7 cells. Put plainly: MTT viability assay, MCF-7. It is filed as cell-based. Particulars: Homo sapiens, read-out: EC50 ± SD MCF-7. On the procedure: as §1, §2, §3
Assay [2] has as its system MCF-7 cells. Put plainly: Annexin V-FITC/PI flow cytometry, MCF-7. It counts as cell-based, human. The settings on record: MCF-7, 72-h treatment, compound at its EC50. On the procedure: Additionally, assaying annexin V-binding to phosphatidylserine by means of flow cytometry confirmed that derivatives 3c and 6a–c induced apoptosis in both cell lines (Figure 9, Figure S3).
MCF-7 cells were seeded in six-well plates at 1.5 × 10^5 cells/well. […] Then, the plates were incubated for 24 h or 72 h. After exposure to the examined compounds, the floating cells were collected, and monolayer cell culture was trypsinized. The cells were centrifugated at 200× g at 4 °C for 5 min, washed twice in cold phosphate-buffered saline (PBS), and subsequently suspended in binding buffer at 1 × 10^6 cells/mL. Subsequently, 100-μL aliquots of the cell suspension were labeled according to the kit manufacturer’s instructions. Briefly, annexin V-fluorescein isothiocyanate and propidium iodide (BD Biosciences, Pharmingen, San Diego, CA, USA) were added to the cell suspension, and the mixture was vortexed and then incubated for 15 min at RT in the dark. A cold binding buffer (900 μL) was then added and the cells were vortexed again and kept on ice. Flow cytometric measurements were performed within 1 h after labeling. Viable, necrotic, early, and late apoptotic cells were detected by flow cytometry using CyFlow Cube 8 (Sysmex, Norderstedt, Germany) flow cytometer.
Background: A flow cytometer gives signals particle by particle.

Assay [3] concerns protein kinase CK2 in MDA-MB-231 cells. Put plainly: Intracellular inhibition of CK2, Western blot of p-Ser529 p65 and p-Ser129 Akt1, MDA-MB-231. It is filed as cell-based, human. Particulars: MDA-MB-231, 24 h treatment, compound at its 72-h EC50, relative to untreated control. From the text: We observed an inhibition of CK2 in both cell lines; however, the lower efficiency of CK2 inhibition was detected in MCF-7 considering the extent of Akt1 phosphorylation. The relative level of the phosphorylation of the tested proteins in MDA-MB-231 cells was in the range of 0.32 to 0.80 for p-Ser529 p65 and 0.41 to 0.73 for p-Ser129 Akt1, whereas in MCF-7 cells it was in the range of 0.33 to 0.78 for p-Ser529 p65 and 0.82 to 1.23 for p-Ser129 Akt1, respectively. The lowest phosphorylation levels of the tested proteins were detected in MDA-MB-231 cells for compound 6b with the relative level of 0.41 for Ser129 Akt1 as well as for compound 6c with the relative level of 0.32 for p-Ser529 p65. Among the tested proteins, the lowest extent of phosphorylation in MCF-7 cells was detected for 6b with the relative level of 0.33 for p-Ser529 p65, and for 6a with the relative level of 0.82 for Ser129 Akt1.
The MCF-7 cells growing exponentially were seeded at 4.8 × 10^5 cells in 6-cm-diameter plates. Subsequently, compounds were added in a final concentration of 0.5% DMSO. […] The protein concentration was determined using Bradford assay. […]
For densitometry, immunoblots were quantified using the Fiji distribution of the ImageJ 1.52a software (National Institutes of Health, Bethesda, MD, USA, and the University of Wisconsin, Madison, WI, USA). […]
For orientation: A western blot detects proteins with antibodies after separation by electrophoresis.

On to `CCCCCC(=O)OCCCn1c(C)nc2c(Br)c(Br)c(Br)c(Br)c21` [Compound 6b, (4,5,6,7-Tetrabromo-2-methyl-1H-benzimidazol-1-yl)propyl hexanoate], for which the EC50 in the assay on MDA-MB-231 cells (24 h) came out at 51.4 ± 8.22 µM; in the assay with MDA-MB-231 cells (48 h), 21.2 ± 2.4 µM; in the assay with MDA-MB-231 cells (72 h) it was 22.1 ± 3.18 µM; in the assay with MCF-7 cells [1] (MCF7, 24 h), 22.4 ± 1.12 µM; with MCF-7 cells [1] (MCF7, 48 h), 18.59 ± 0.18 µM; with MCF-7 cells [1] (MCF7, 72 h), 18.3 ± 2.86 µM. Further, in the assay with MCF-7 cells [2], the “apoptotic cells (early and late apoptosis)” value stood at 57.5%. Further, in assay [3], the “relative level of p-Ser129 Akt1” value came out at 0.41.

For `CCCCCCCC(=O)OCCCn1cnc2c(Br)c(Br)c(Br)c(Br)c21` [Compound 3c, 3-(4,5,6,7-Tetrabromo-1H-benzimidazol-1-yl)propyl octanoate], the EC50 amounted to 45.1 ± 5.43 µM with MDA-MB-231 cells (24 h); 23.7 ± 3.97 µM in the assay on MDA-MB-231 cells (48 h); 32.8 ± 3.25 µM with MDA-MB-231 cells (72 h); 24.3 ± 0.25 µM in the assay on MCF-7 cells [1] (MCF7, 24 h); 21.1 ± 1.23 µM with MCF-7 cells [1] (MCF7, 48 h); 29.9 ± 1.45 µM in the assay on MCF-7 cells [1] (MCF7, 72 h).
